Measured values taken from article PMC6352937, “Inhibition of protein phosphatase-1 and -2A by ellagitannins: structure-inhibitory potency relationships and influences on cellular systems” (Journal of Enzyme Inhibition and Medicinal Chemistry, 2019).

Key:
[1] = system: HeLa lysate; test: Phosphatase activity of HeLa cell lysate (32P-MLC20); type: biochemical, human; details: HeLa lysate in 300-fold dilution; 1 µM 32P-MLC20; mean ± SD
Protocol: (§1) Protein phosphatase activity of either skeletal muscle PP1c or PP2Ac (1.9–2.2 nM), or rPP1cα or rPP1cδ (2.71–3.72 nM), or FLAG-MYPT1-PP1c (∼9 nM) was assayed at 30 °C in absence or presence of polyphenol compounds (0.1–100 µM) in 20 mM Tris/HCl (pH 7.4), 0.1% 2-mercaptoethanol (30 µL). The purified phosphatase samples or HeLa lysates in 300-fold dilution (1.8–3.6 µg/ml) in the presence or absence of 2 µM I2 were preincubated with increasing concentration of the polyphenol compounds (0–100 µM) for 10 min then the reaction was started by the addition of 1 µM ^32P-MLC20 and incubated for 10 min. Polyphenol-treated HeLa cells were washed then lysed in 50 mM Tris/HCl (pH 8.0), 150 mM NaCl, 1% (V/V) Triton X-100, 0.15% (w/v) protease inhibitor cocktail. The phosphatase activity was assayed with 1 µM ^32P-MLC20 for 30 s in 3-fold final dilution (0.24–0.43 mg/ml). The reactions were terminated by the addition of 200 µL of 10% trichloroacetic acid and 200 µL of 6 mg/mL BSA solution. The samples were centrifuged for 3 min at 10,000 rpm and the supernatants (370 µL) were transferred into scintillation vials and the radioactivity of the released ^32Pi was determined in Tri-Carb 2800TR scintillation counter.
(§2) The ellagitannins (Figure 1) assayed on the activity of PP1c or PP2Ac in this study are similar to PGG in composition, but they differ structurally in two important aspects: (i) all of them include hexahydroxydiphenoyl unit linked in various positions, except for pedunculagin which includes two of these linkages; (ii) tellimagrandin I, pedunculagin, and praecoxin B have free glycosidic hydroxyls, while GHG has an unmodified hydroxyl at position 3 of the glucopyranose ring. […] Inhibition of the phosphatase activity by ellagitannins in HeLa cell lysate was also assessed. First, we determined the activity of PP1 and PP2A in the lysates using I2 to inhibit PP1, and low concentration of OA (2 nM) to suppress PP2A specifically, in order to determine the contribution of PP1 and PP2A to the phosphatase activity of lysates (Figure 2(E)).
(§3) Figure 2. The effect of ellagitannins on the activity of PP1 and PP2A. Ellagitannins (0.1–100 µM) were preincubated with the phosphatase samples for 10 min and the phosphatase activity was determined in triplicates with 1 µM ^32P-MLC20 substrate as described in “Materials and methods” section. […] The effect of tellimagrandin I on the activity of rPP1cα (^) and rPP1cδ (●) (C), or FLAG-MYPT1-PP1cδ (▼) (D), or on the phosphatase activity of HeLa lysate in the presence of I2 (□) (F). The effect of I2 and OA on the phosphatase activity of HeLa lysate (E). Phosphatase activity in the absence of ellagitannins, I2 or OA was taken as 100%. Data are means ± SD (n = 3–5).

[2] = biological target: PP2Ac; test: Protein phosphatase assay with 32P-MLC20, native PP2Ac; type: biochemical; details: native PP2Ac from rabbit skeletal muscle; 1 µM 32P-MLC20; 10 min preincubation; mean ± SD
Protocol: as §1, §2, §3

[3] = biological target: PP1c; test: Protein phosphatase assay with 32P-MLC20, native PP1c; type: biochemical; details: native PP1c from rabbit skeletal muscle; 1 µM 32P-MLC20; 10 min preincubation; mean ± SD
Protocol: as §1, §2, §3

[4] = biological target: T1, rPP1cδ (Homo sapiens, UniProt P62140); test: Surface plasmon resonance (SPR); type: binding; details: rPP1cδ immobilised on CM5 chip; 1:1 interaction model
T1 construct: hexahistidine; made in house
T1 sequence (P62140 whole entry): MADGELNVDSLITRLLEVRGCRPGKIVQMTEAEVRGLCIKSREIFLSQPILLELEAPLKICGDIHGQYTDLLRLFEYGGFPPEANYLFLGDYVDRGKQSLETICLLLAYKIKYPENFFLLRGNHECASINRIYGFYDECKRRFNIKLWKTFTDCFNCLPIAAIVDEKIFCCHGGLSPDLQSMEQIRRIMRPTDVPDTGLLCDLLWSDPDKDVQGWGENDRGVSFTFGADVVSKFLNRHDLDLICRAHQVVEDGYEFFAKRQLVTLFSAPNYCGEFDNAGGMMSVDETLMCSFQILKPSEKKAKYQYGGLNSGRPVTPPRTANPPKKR

[5] = system: HeLa cells; test: Phosphatase activity of polyphenol-treated HeLa cells; type: cell-based, human; details: 1 h incubation; 0-50 µM tested
Protocol: as §1
HeLa cells and tsa201 cells were cultured as recommended by the supplier. […] The emission of resorufin was measured by a fluorimeter at 620 nm. […]

[6] = system: SNAP-25^Thr138; test: Phosphorylation of SNAP-25 Thr138 in cortical synaptosomes (Western blot); type: cell-based, mouse; details: synaptosomes treated 45 min at 30 °C; ellagitannins 1-100 µM, TMC 10 µM
Protocol: (§4) Preparation of synaptosomes from murine brain cortex was carried out as described previously. Functional synaptosomes were kept in Krebs buffer (118 mM NaCl, 5 mM KCl, 25 mM NaHCO3, 1 mM MgCl2, 10 mM D-glucose, pH 7.4). After preparation, synaptosomes were treated with either tellimagrandin I or mahtabin A in 1, 10 or 100 µM final concentrations, or with 10 µM tautomycetin (TMC) for 45 min at 30 °C. After the treatments synaptosomes were applied for exocytosis assay or were lysed and the protein lysates were subjected to Western blot. For exocytosis assay an already established protocol[25] was used. FM 2–10 water-soluble styryl dye was incorporated first into the outer leaflet of synaptosome membrane, then into the synaptosomes. Exocytosis was induced by addition of 30 mM KCl to the synaptosomes. The fluorescent intensity of FM 2–10 styryl dye negatively correlated with the extent of synatposomal exocytosis and was measured by Fluoroskan FL (excitation: 488 nm, emission: 540 nm). Western blot of synaptosome proteins was carried out as described previously[24]^,[25].
Figure 5. […] E: Representative Western blot with anti- SNAP-25^pThr138 specific antibody. F: Relative changes in the amount of SNAP-25^pThr138 determined by densitometry of the Western blots normalised on the bands obtained for the loading controls. Data are means ± SD (n = 3). ANOVA *p < .05, **p < .01, ***p < .001, n.s.: not significant.

[7] = biological target: T2, rPP1cα (Homo sapiens, UniProt P62136); test: Protein phosphatase assay, recombinant rPP1cα; type: biochemical; details: purified recombinant FLAG-tagged PP1cα
T2 construct: FLAG; made in house
T2 sequence (P62136 whole entry): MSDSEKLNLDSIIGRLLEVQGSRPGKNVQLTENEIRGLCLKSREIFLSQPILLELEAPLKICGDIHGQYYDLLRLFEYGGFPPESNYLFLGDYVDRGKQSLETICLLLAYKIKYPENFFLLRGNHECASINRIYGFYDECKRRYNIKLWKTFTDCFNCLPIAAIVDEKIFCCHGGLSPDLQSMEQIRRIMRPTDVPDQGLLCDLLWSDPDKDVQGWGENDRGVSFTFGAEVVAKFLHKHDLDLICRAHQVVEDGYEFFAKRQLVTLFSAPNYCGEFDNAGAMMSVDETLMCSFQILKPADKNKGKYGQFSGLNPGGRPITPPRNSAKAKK
Protocol: as §1, with “The reactions were terminated by the addition of 200 µL of 10% trichloroacetic acid and 200 µL of 6 mg/mL BSA solution.” left out
(§5) Figure 2. […] Ellagitannins (0.1–100 µM) were preincubated with the phosphatase samples for 10 min and the phosphatase activity was determined in triplicates with 1 µM ^32P-MLC20 substrate as described in “Materials and methods” section. […]

[8] = biological target: T1, rPP1cδ; test: Protein phosphatase assay, recombinant rPP1cδ; type: biochemical; details: purified recombinant hexahistidine-tagged PP1cδ
Protocol: as §1, with “The reactions were terminated by the addition of 200 µL of 10% trichloroacetic acid and 200 µL of 6 mg/mL BSA solution.” left out
as §5

[9] = biological target: T2, rPP1cα; test: Microscale thermophoresis (MST); type: binding
Protocol: (§6) Figure 3. […] The changes in either, the intrinsic fluorescence of unlabelled rPP1cα upon binding to tellimagrandin I and PGG, or changes in fluorescent signal from rPP1cα extrinsically labelled with NT647 dye upon binding with EGCG, were determined at a range of concentration of polyphenols, and the fractions bound are presented. Data points are means ± SD (n = 3).

[10] = system: mouse cortical synaptosomes; test: KCl induced exocytosis of cortical synaptosomes (FM 2-10 dye); type: cell-based; details: 30 mM KCl; FM 2-10 fluorescence; 45 min treatment
Protocol: as §4
Figure 5. […] E: Representative Western blot with anti- SNAP-25^pThr138 specific antibody. F: Relative changes in the amount of SNAP-25^pThr138 determined by densitometry of the Western blots normalised on the bands obtained for the loading controls. Data are means ± SD (n = 3). […]

[11] = system: HeLa cells; test: HeLa cell viability, Alamar-blue assay; type: cell-based, human; details: 24 h incubation, serum free; 0-50 µM tested
Protocol: HeLa cells and tsa201 cells were cultured as recommended by the supplier. Prior to treatments HeLa cells were serum starved in MEM medium supplemented with 2 mM L-glutamine for 17 h. For phosphatase activity assay cells were treated with increasing concentration of polyphenol compounds (1–50 µM) for 1 h. To assess cell viability by Alamar-blue assay serum starved cells were treated with ellagitannins (1–50 µM) for 24 h in serum free MEM medium. The media was exchanged for resazurin (20 µM) containing serum free media and the cells were incubated for 2 h to enhance resorufin formation by the viable cells. The emission of resorufin was measured by a fluorimeter at 620 nm.
Figure 4. Distinct influence of ellagitannins on the survival and phosphatase activity of HeLa cells. The effect of tellimagrandin I and mahtabin A was assayed on the survival (A) and the phosphatase activity (B) of HeLa cells in 0–50 µM concentration range as detailed in Materials and methods. The cell survival and the phosphatase activity in the absence of ellagitannins were taken as 100%. Data represent means ± SD (n = 3). ANOVA *p < .05, **p < .01, ***p < .001, n.s.: not significant.

[12] = biological target: T2, rPP1cα; test: Isothermal titration calorimetry (ITC); type: binding; details: 25 °C
Protocol: Isothermal titration calorimetry (ITC) experiments were carried out at 25 °C by a MicroCal ITC200 instrument. The assay buffer contains 25 mM Tris/HCl (pH 8.0), 100 mM NaCl, and 1 mM DTT. rPP1cα was dialysed in the assay buffer two times for two hours freshly prior to measurements and diluted to 5–10 µM then transferred into the sample cell of the calorimeter. Tellimagrandin I was diluted to 60–100 µM in the assay buffer and measured into the syringe. 18 times 2 µL ligand was then injected into the cell at a stirring rate of 300 rpm. The reference power was 5 µcal/sec and the assay buffer was loaded in the reference cell. The titration data were analysed with MicroCal ITC-Origin software using one sets of site model to obtain binding parameters of ligand-protein interaction.
as §6

[13] = biological target: T3, FLAG-MYPT1-PP1cδ complex (Homo sapiens, UniProt P62140); test: Protein phosphatase assay, myosin phosphatase holoenzyme; type: biochemical; details: holoenzyme ~9 nM
T3 construct: its associated proteins (such as PP1cδ) were isolated from cell lysates; expressed in transfected cells; host or cells: tsA201 cells
T3 sequence (P62140 2-327 limits assumed): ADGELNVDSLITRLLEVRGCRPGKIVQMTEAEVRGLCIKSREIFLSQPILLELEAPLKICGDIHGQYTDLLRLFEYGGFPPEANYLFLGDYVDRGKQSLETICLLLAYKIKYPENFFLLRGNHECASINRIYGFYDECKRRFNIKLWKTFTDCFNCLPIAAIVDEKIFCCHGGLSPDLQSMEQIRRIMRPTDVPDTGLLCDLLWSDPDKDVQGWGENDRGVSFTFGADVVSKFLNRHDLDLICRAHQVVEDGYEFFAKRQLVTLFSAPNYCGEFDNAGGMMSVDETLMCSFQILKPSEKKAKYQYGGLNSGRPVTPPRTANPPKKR
T3 sequence (O14974 whole entry partner): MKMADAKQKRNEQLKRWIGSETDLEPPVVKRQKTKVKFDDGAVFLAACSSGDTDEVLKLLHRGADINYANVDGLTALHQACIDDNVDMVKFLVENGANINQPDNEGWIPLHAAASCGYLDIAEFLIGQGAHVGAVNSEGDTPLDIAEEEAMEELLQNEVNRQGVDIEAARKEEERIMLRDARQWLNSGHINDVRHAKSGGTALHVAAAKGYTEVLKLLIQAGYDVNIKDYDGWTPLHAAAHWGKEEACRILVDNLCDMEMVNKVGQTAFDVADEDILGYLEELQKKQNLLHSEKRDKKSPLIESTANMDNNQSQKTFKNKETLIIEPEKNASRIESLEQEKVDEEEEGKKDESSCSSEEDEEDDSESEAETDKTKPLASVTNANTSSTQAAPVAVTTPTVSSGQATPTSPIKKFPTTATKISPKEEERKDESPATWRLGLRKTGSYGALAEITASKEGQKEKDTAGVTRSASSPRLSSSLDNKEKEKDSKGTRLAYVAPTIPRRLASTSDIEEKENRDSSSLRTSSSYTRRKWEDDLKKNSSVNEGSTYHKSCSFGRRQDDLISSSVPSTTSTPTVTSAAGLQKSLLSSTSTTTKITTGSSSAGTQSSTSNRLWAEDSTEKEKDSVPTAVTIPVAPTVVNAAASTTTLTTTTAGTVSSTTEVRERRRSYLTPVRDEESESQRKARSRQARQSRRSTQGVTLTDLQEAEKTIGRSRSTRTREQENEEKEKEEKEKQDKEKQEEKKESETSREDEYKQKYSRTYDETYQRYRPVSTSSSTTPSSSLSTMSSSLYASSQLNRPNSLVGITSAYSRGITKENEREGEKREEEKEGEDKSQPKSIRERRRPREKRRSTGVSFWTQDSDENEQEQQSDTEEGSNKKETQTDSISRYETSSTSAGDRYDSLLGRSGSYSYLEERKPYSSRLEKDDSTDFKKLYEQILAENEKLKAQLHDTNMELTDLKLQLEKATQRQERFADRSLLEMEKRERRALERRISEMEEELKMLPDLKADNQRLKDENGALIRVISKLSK
Protocol: as §1, with “The reactions were terminated by the addition of 200 µL of 10% trichloroacetic acid and 200 µL of 6 mg/mL BSA solution.” left out
as §5

[14] = system: PP2A; test: Phosphatase activity of HeLa lysate in the presence of I2 (activity due to PP2A); type: biochemical, human; details: PP1 suppressed by 2 µM I2; up to the highest concentration applied (100 µM)
Protocol: as §1, with “Polyphenol-treated HeLa cells were washed then lysed in 50 mM Tris/HCl (pH 8.0), 150 mM NaCl, 1% (V/V) Triton X-100, 0.15% (w/v) protease inhibitor cocktail. The phosphatase activity was assayed with 1 µM ^32P-MLC20 for 30 s in 3-fold final dilution (0.24–0.43 mg/ml). The reactions were terminated by the addition of 200 µL of 10% trichloroacetic acid and 200 µL of 6 mg/mL BSA solution.” left out
The ellagitannins (Figure 1) assayed on the activity of PP1c or PP2Ac in this study are similar to PGG in composition, but they differ structurally in two important aspects: (i) all of them include hexahydroxydiphenoyl unit linked in various positions, except for pedunculagin which includes two of these linkages; (ii) tellimagrandin I, pedunculagin, and praecoxin B have free glycosidic hydroxyls, while GHG has an unmodified hydroxyl at position 3 of the glucopyranose ring. […] Inhibition of the phosphatase activity by ellagitannins in HeLa cell lysate was also assessed. […]

O=C(OC[C@H]1OC(O)[C@@H]2OC(=O)c3cc(O)c(O)c(O)c3-c3c(cc(O)c(O)c3O)C(=O)O[C@H]2[C@@H]1OC(=O)c1cc(O)c(O)c(O)c1)c1cc(O)c(O)c(O)c1 (stereo partly shown) [praecoxin B]
IC50 [1]: 6970 ± 1120 nM | IC50 [2]: 63900 ± 5520 nM | IC50 [3]: 790 ± 110 nM

O=C(O[C@H]1[C@@H]2OC(=O)c3cc(O)c(O)c(O)c3-c3c(cc(O)c(O)c3O)C(=O)OC[C@H]2OC(O)[C@@H]1OC(=O)c1cc(O)c(O)c(O)c1)c1cc(O)c(O)c(O)c1 (stereo partly shown) [tellimagrandin I]
Kd [4]: 310 nM | Effect on phosphatase activity of HeLa cells [5]: partially reduced the phosphatase activity | Effect on phosphorylation level of SNAP-25^Thr138 [6]: had no any effect | IC50 [7]: 230 ± 50 nM | IC50 [1]: 4460 ± 950 nM | IC50 [8]: 130 ± 20 nM | Kd ([9]; unlabelled rPP1cα, intrinsic fluorescence (NT.LabelFree)): 1780 ± 590 nM | Effect on KCl induced synaptosomal exocytosis [10]: without any influence | Effect on viability (survival) of HeLa cells [11]: suppressed the viability of HeLa cells dramatically | IC50 [2]: 19500 ± 8600 nM | Ka (ITC) [12]: 4.68 ± 1.02x10^6 M^−1 | S (ITC) [12]: 0.0036 kcal/mol/K | N (ITC) ([12]; binding stoichiometry): 1.16 ± 0.03 | Kd ([12]; one sets of site model): 230 nM | IC50 [13]: 110 ± 20 nM | Inhibition of phosphatase activity due to PP2A in HeLa lysate [14]: slightly | IC50 [3]: 200 ± 20 nM

epigallocatechin-3-gallate [EGCG]
Kd ([9]; rPP1cα labelled with NT-647 (NT.115)): 8200 ± 4300 nM

tautomycetin [TMC, reference compound]
Effect on phosphorylation level of SNAP-25^Thr138 [6]: increased the amount of SNAP-25^pThr138
